Source: US7259004B1, “Endophytic streptomycetes from higher plants with biological activity” (Montana State University, priority 2002, dated 2007)
Converted amounts (≈) assume the structure as drawn. Where two headings read alike, the source gives them in different places.

Key:
[1] = system: Staphylococcus aureus ATCC 33591 (MRSA); experiment: microbroth dilution MIC; format: cell-based; conditions: Staphylococcus aureus; Table 15
[2] = system: Enterococcus faecalis ATCC 51299 (VRE); experiment: microbroth dilution MIC; format: cell-based; conditions: Enterococcus faecalis; Table 15
S. epidermis 12228 = experiment: microbroth dilution MIC; format: cell-based, Staphylococcus epidermidis; conditions: Staphylococcus epidermidis, ATCC12228; Table 15; read-out: MIC Staphylococcus epidermidis ATCC 12228
E. faecium 49624 = experiment: microbroth dilution MIC; format: cell-based, Enterococcus faecium; conditions: Enterococcus faecium, ATCC49624; Table 15; read-out: MIC Enterococcus faecium ATCC 49624
E. faecalis 29212 = experiment: microbroth dilution MIC; format: cell-based, Enterococcus faecalis; conditions: Enterococcus faecalis, ATCC29212; Table 15; read-out: MIC Enterococcus faecalis ATCC 29212
S. aureus 29213 = experiment: microbroth dilution MIC; format: cell-based, Staphylococcus aureus; conditions: Staphylococcus aureus, ATCC29213; Table 15; read-out: MIC Staphylococcus aureus ATCC 29213
[3] = system: Listeria monocytogenes 19114; experiment: microbroth dilution MIC; format: cell-based; conditions: Listeria monocytogenes, ATCC19114; Table 15; read-out: MIC Listeria monocytogenes ATCC 19114
[4] = system: Listeria monocytogenes 19115; experiment: microbroth dilution MIC; format: cell-based; conditions: Listeria monocytogenes, ATCC19115; Table 15; read-out: MIC Listeria monocytogenes ATCC 19115
[5] = system: Staphylococccus simulans 11631; experiment: microbroth dilution MIC; format: cell-based, Staphylococcus simulans; conditions: Staphylococcus simulans, ATCC11631; Table 15; read-out: MIC Staphylococcus simulans ATCC 11631
[6] = system: Staphylococccus aureus 27734; experiment: microbroth dilution MIC; format: cell-based, Staphylococcus aureus; conditions: Staphylococcus aureus, ATCC27734; Table 15; read-out: MIC Staphylococcus aureus ATCC 27734
[7] = system: Streptococcus pneumoniae 49619; experiment: microbroth dilution MIC; format: cell-based; conditions: Streptococcus pneumoniae, ATCC49619; Table 15; read-out: MIC Streptococcus pneumoniae ATCC 49619
[8] = system: Bacillus anthracis 40/BA 100; experiment: microbe, parasite or virus in culture; format: cell-based; conditions: 40/BA100, read-out: MIC Bacillus anthracis 40/BA 100
Bacillus anthracis 14578 = experiment: microbe, parasite or virus in culture; format: cell-based; conditions: Bacillus anthracis, 14578, read-out: MIC Bacillus anthracis 14578
Bacillus anthracis 28 = experiment: microbe, parasite or virus in culture; format: cell-based; conditions: Bacillus anthracis, 28, read-out: MIC Bacillus anthracis 28
Bacillus anthracis 62-8 = experiment: microbe, parasite or virus in culture; format: cell-based; conditions: Bacillus anthracis, 628, read-out: MIC Bacillus anthracis 62-8
[9] = system: Shigella dysenteriae ATCC 11835; experiment: microbroth dilution MIC; format: cell-based; conditions: ATCC11835, Table 15, read-out: MIC Shigella dysenteriae ATCC 11835
[10] = system: Staphylococcus aureus GISA, ATCC 700787; experiment: microbroth dilution MIC; format: cell-based; conditions: ATCC700787, Table 15, read-out: MIC Staphylococcus aureus GISA, ATCC 700787
[11] = system: Streptococcus pneumoniae ATCC 70674; experiment: microbroth dilution MIC; format: cell-based; conditions: ATCC70674, Table 15, read-out: MIC Streptococcus pneumoniae ATCC 70674
[12] = system: Streptococcus pneumoniae ATCC 70676; experiment: microbroth dilution MIC; format: cell-based; conditions: ATCC70676, Table 15, read-out: MIC Streptococcus pneumoniae ATCC 70676
B. subtilis 1A757 = experiment: microbe, parasite or virus in culture; format: cell-based, Bacillus subtilis; conditions: for MIC: Bacillus subtilis, read-out: MIC B. subtilis 1A757
S. aureus ATCC 6583P = experiment: MIC with and without double stranded DNA; format: cell-based, Staphylococcus aureus; conditions: Staphylococcus aureus, ATCC6583P, read-out: MIC S. aureus ATCC 6583P
[13] = CellTiter 96 Aqueous Non-Radioactive Cell Proliferation Assay; format: cell-based, human; conditions: human, read-out: IC50 cytotoxicity, human mammary epithelial cells
[14] = system: Human Breast Cancer Epithelial BT-20; experiment: as above; format: cell-based; conditions: for IC50: Homo sapiens
[15] = system: Human Cervical Cancer Epithelial ME180; experiment: as above; format: cell-based; conditions: Homo sapiens, ME-180, read-out: IC50 Human Cervical Cancer Epthelial ME180
In short: (§1)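 Cells rested 5 h at 37° C after seeding, then treated in triplicate with two-fold serial dilutions of compound. A-549 and ME-180 were exposed for 48 h. After 1–4 h MTS reagent at 37° C, OD490 was read and corrected by subtracting medium-only blanks.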

[16] = system: Human Lung Cancer Epithelial A549; experiment: as above; format: cell-based; conditions: Homo sapiens, A549, read-out: IC50 Human Lung Cancer Epithelial A549
In short: as §1

[17] = system: Human Primary Mammary Epithelial HMEC; experiment: as above; format: cell-based; conditions: Homo sapiens, HMEC, read-out: IC50 Human Primary Mammary Epithelial HMEC, Table 12
[18] = system: DNA synthesis in Bacillus subtilis; experiment: macromolecular synthesis whole cell assay, [3H]thymidine incorporation; format: cell-based; conditions: 5 min; 1×MIC
[19] = system: RNA synthesis in Bacillus subtilis; experiment: macromolecular synthesis whole cell assay, [3H]uridine incorporation; format: cell-based; conditions: 1×MIC
[20] = system: Protein synthesis in Bacillus subtilis; experiment: macromolecular synthesis whole cell assay, [3H]amino acid mixture incorporation; format: cell-based; conditions: 1×MIC
[21] = solubility in acetonitrile
[22] = system: Plasmodium falciparum strain CSC-1 (Honduras); experiment: antimalarial assay, 3H-phenylalanine radiobioassay in human red blood cells; conditions: Plasmodium falciparum, Erythrocyte, read-out: IC50 Plasmodium falciparum

For `CS[C@H]1SC[C@H]2C(=O)N(C)[C@@H](C(C)C)C(=O)OC[C@@H](NC(=O)c3cnc4ccccc4n3)C(=O)N[C@@H](C)C(=O)N(C)[C@@H]1C(=O)N(C)[C@@H](C(C)C)C(=O)OC[C@@H](NC(=O)c1cnc3ccccc3n1)C(=O)N[C@@H](C)C(=O)N2C` [Echinomycin, reference compound], the MIC [1] was 0.5 µg/mL (≈ 0.454 µM), the MIC [2] was 0.125 µg/mL (≈ 0.114 µM) and the MIC (S. epidermis 12228) was 0.25 µg/mL (≈ 0.227 µM). It also gave an MIC (E. faecium 49624) of at most 0.062 µg/mL, an MIC (E. faecalis 29212) of 0.125 µg/mL (≈ 0.114 µM) and an MIC (S. aureus 29213) of 0.5 µg/mL (≈ 0.454 µM). It also gave an MIC [3] of 0.5 µg/mL (≈ 0.454 µM), an MIC [4] of 0.25 µg/mL (≈ 0.227 µM) and an MIC [5] of 0.25 µg/mL (≈ 0.227 µM). For the same compound, the MIC [6] was 0.25 µg/mL (≈ 0.227 µM), the MIC [7] was under 0.0325 µg/mL and the MIC [8] was 1.4 µg/mL (≈ 1.27 µM). For the same compound, the MIC (Bacillus anthracis 14578) was 1.99 µg/mL (≈ 1.81 µM), the MIC (Bacillus anthracis 28) was 2.4 µg/mL (≈ 2.18 µM) and the MIC (Bacillus anthracis 62-8) was 1.4 µg/mL (≈ 1.27 µM). The MIC [9] was 8 µg/mL (≈ 7.26 µM), the MIC [10] was 1 µg/mL (≈ 0.908 µM) and the MIC [11] was under 0.0325 µg/mL. The MIC [12] was under 0.0325 µg/mL, the “1×MIC against Bacillus subtilis” value (B. subtilis 1A757) was 0.25 micrograms/ml and the MIC (B. subtilis 1A757; 1A757, DNA +, 20 micrograms per well of sheared salmon sperm DNA) was 8 µg/mL (≈ 7.26 µM). The MIC (B. subtilis 1A757; 1A757, DNA −) was 0.125 µg/mL (≈ 0.114 µM), the MIC (S. aureus ATCC 6583P; DNA +, 20 micrograms per well of sheared salmon sperm DNA) was 16 µg/mL (≈ 14.5 µM) and the MIC (S. aureus ATCC 6583P; DNA −) was 0.5 µg/mL (≈ 0.454 µM). For the same compound, the IC50 at 48 h ([13]; Example 15) was 0.0108 ± 0.0011 µg/mL (≈ 0.00981 µM), the IC50 at 48 h ([13]; text of Examples 18, 19) was 4.8 µg/mL (≈ 4.36 µM) and the IC50 ([14]; BT-20, read-out: IC50 Human Breast Cancer Eipthelial BT-20, Table 12) was 0.0048 µg/mL (≈ 0.00436 µM). The IC50 ([14]; BT-20, read-out: IC50 human breast cancer cell line BT 20, text of Examples 15, 18, 19) was 0.0048 µg/mL (≈ 0.00436 µM), the “IC50 human breast cancer cell line BT 20” value ([14]; text of Examples 15, 18, 19, listed as echnimonycin) was 0.0065 µg/mL (≈ 0.0059 µM) and the IC50 [15] was 0.023 µg/mL (≈ 0.0209 µM). The IC50 [16] was 0.145 µg/mL (≈ 0.132 µM), the IC50 [17] was 0.0108 µg/mL (≈ 0.00981 µM) and the “% [3H]thymidine (DNA synthesis) incorporation of that of the untreated culture” value [18] was 1%. The “% [3H]uridine (RNA synthesis) incorporation of that of the untreated culture” value ([19]; 5 min) was 41%, the “% [3H]uridine (RNA synthesis) incorporation of that of the untreated culture” value ([19]; 10 min) was 37% and the “% [3H]amino acid mixture (Protein synthesis) incorporation of that of the untreated culture” value ([20]; 5 min) was 73%. The “% [3H]amino acid mixture (Protein synthesis) incorporation of that of the untreated culture” value ([20]; 10 min) was 62%, the Solubility in acetonitrile [21] was “sparingly soluble” and the IC50 [22] was 0.00408 ± 0.0001 µg/mL (≈ 0.0037 µM).
